Results: publication PMC10761680 (Scientific Reports, 2024)
Read-outs that look alike come from different tables or passages of the source.

Tests used:
[1] = molecular target: human soluble ENPP1; conditions: substrate p-Nph-5′-TMP, Colorimetry (p-nitrophenol), cited from earlier work; for Ki: pH 9.0; for IC50: read-out: IC50 (shown in the Ki column)
[2] = molecular target: human soluble ENPP1; design: method as in earlier work; conditions: substrate ATP, Colorimetry (Molybdenum-phosphate complex), pH 9.0; cited from earlier work
[3] = molecular target: human soluble ENPP1; conditions: substrate ATP, Capillary Electrophoresis, pH 9.0; cited from earlier work
[4] = molecular target: human soluble ENPP1; conditions: substrate cGAMP, Bioluminescence (Enzyme-coupling), cited from earlier work
[5] = molecular target: T1, human ENPP1 (Homo sapiens, UniProt P22413); test: Fluorescent screening of ENPP1 inhibitors using ATP as substrate and Kyoto Green as reporter; type: biochemical; design: purchased R&D systems (Minneapolis, USA); conditions: 2 μM ATP, 11.5 nM ENPP1, 20 min, pH 7.4; for ENPP1 inhibition in Kyoto Green screening (in words): 10 μM or maximum soluble concentration
T1 sequence (P22413 98-925 limits assumed): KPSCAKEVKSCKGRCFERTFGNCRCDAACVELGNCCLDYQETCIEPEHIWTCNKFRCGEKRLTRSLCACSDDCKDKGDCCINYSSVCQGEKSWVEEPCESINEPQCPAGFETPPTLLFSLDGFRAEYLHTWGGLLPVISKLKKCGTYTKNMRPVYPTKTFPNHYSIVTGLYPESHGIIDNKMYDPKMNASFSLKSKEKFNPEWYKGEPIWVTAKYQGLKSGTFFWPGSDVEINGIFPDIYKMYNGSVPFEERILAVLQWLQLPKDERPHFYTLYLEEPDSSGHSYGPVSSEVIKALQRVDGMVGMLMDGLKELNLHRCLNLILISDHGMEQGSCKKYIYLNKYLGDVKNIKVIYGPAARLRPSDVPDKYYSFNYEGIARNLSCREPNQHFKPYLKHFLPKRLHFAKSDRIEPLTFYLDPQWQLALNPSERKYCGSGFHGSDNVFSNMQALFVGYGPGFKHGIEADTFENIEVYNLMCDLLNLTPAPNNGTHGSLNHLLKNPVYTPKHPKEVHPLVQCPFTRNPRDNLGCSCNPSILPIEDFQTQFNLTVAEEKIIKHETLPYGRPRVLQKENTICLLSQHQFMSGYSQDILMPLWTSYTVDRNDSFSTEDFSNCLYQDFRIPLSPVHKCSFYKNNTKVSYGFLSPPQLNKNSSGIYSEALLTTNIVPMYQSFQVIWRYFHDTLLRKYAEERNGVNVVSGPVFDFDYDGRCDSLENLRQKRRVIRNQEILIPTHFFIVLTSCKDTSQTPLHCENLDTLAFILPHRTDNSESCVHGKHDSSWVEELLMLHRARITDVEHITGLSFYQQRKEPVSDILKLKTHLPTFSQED

[6] = molecular target: T1, human ENPP1; test: Fluorescent determination of IC50/Ki using Kyoto Green (ATP hydrolysis)
[7] = Solubility in water (solution preparation); type: physicochemical
[8] = molecular target: T1, human ENPP1; test: biochemical
[9] = molecular target: T1, human ENPP1; test: Bioluminescent assay of ENPP1 using luciferin/luciferase ATP assay kit
[10] = pH-dependent stability of quercetin in aqueous solution (UV-visible spectrum); type: physicochemical; conditions: 50 mM HEPES buffer (pH 7.4), 60 min, 7 µM
Method: page 8: 0 → 60 min 0 → 60 min Figure S7.pH -dependent stability of quercetin in aqueous solution. Time course of UV- visible spectrum (JASCO […], Japan) of quercetin ( 7 μ M) in50 m M HEPES buffer (pH 7.4) (above) or 50 mM borate buffer (pH 9.0) (below) . Inset: Absorbance at λ ma x ( 403 nm). Ratio of ethanol : buffer = 1 : 10 v/v. The buffer contain ed 10 mM NaCl, 1 mM MgCl 2, and 0.02 mM Zn(NO3)2. Measurements were performed at 25± 2 °C. S8 […]

[11] = molecular target: T1, human ENPP1; test: Colorimetric UV-visible assay of ENPP1 using p-Nph-5′-TMP as chromogenic substrate; type: biochemical; design: purchased R&D systems (Minneapolis, USA)
[12] = molecular target: T1, human ENPP1; design: purchased R&D systems (Minneapolis, USA); method as in PMID 28011303; conditions: substrate of human ENPP1, pH 9.0; cited from earlier work
[13] = Kyoto Green fluorescence method, ATP, pH 7.4

## Cc1nc2ncnn2c(N(C)C)c1Cc1cccc(N)c1 [Compound 1]
[1]
  Ki: 480 nM
[2]
  Ki: 2000 nM

## COc1ccc(NC(=O)CSc2nc3c(N)ncnc3[nH]2)cc1OC [Compound 3]
[1]
  Ki: 5 nM
[3]
  Ki: 18000 nM

## COc1cccc2c(NCc3ccc(P(=O)(O)O)cc3)c(C#N)cnc12 [Compound 5]
[4]; pH 7.4
  Ki: < 2 nM

## CN1Cc2c(ncnc2N2CCC(C)(CNS(N)(=O)=O)CC2)NC1=O [Compound 6]
[4]; pH 8.5, read-out: IC50 (shown in the Ki column)
  IC50: 3.7 nM

## O=c1c(O)c(-c2ccc(O)cc2)oc2cc(O)cc(O)c12 [Kaempferol, 3, 4′,5,7 -tetrahydroxyflavone]
[5]
  ENPP1 inhibition in Kyoto Green screening (in words): ineffective as inhibitors

## O=c1c(O)c(-c2ccc(O)cc2O)oc2cc(O)cc(O)c12 [Morin, 3,5,7,2′,4′-pentahydroxyflavone]
[5]
  ENPP1 inhibition in Kyoto Green screening (in words): ineffective as inhibitors

## O=c1c(O)c(-c2cc(O)c(O)c(O)c2)oc2cc(O)cc(O)c12 [Myricetin, 3,5,7,3′,4′,5′-hexahydroxyflavone]
[1]; pH 7.4
  IC50: 432 nM
[1]; pH 9.5
  IC50: 414 nM

## O=c1c(O)c(-c2ccc(O)c(O)c2)oc2cc(O)cc(O)c12 [Quercetin, 3,5,7,3′,4′-pentahydroxyflavone]
[5]; 10 μM compound
  reduction of Kyoto Green fluorescence change (F/F0-1) compared to the control group without an inhibitor: over 90%
[6]
  IC50: 4.5 ± 0.9 nM
[6]; [13]
  inhibitory efficiency of quercetin relative to myricetin: ~ 8 folds
  inhibitory efficiency of quercetin relative to suramin: ~ 188 folds
[7]
  solubility in water: poor solubility in water
[8]
  Ki: ~4 nM
[9]
  IC50: 5.5 ± 0.6 nM
[10]
  stability in buffer: highly stable
[11]; 700 nM quercetin, 0.1 mM p-Nph-5′-TMP, 50 mM borate buffer pH 9.0, 6.5 nM ENPP1, time course 60 min
  ENPP1 inhibition at pH 9.0 (in words): capable of inhibiting ENPP1 at pH 9.0, but this effect was observed only for the first 10 min
[11]; p-Nph-5′-TMP versus ATP as substrate
  Ki by colorimetric method relative to Ki by Kyoto Green and commercial ATP assays: approximately 40 fold
[11]; substrate p-Nph-5′-TMP, Colorimetry (p-nitrophenol), pH 7.4, Cheng-Prusoff, KM 222 µM
  Ki: 159 ± 73 nM

## O=c1c(O[C@@H]2O[C@H](CO)[C@@H](O)[C@H](O)[C@H]2O)c(-c2ccc(O)c(O)c2)oc2cc(O)cc(O)c12 [Quercetin-3-glucoside, quercetin-3-glucoside]
[5]
  ENPP1 inhibition in Kyoto Green screening (in words): did not inhibit ENPP1
[5]; listed as quercetin glucoside
  ENPP1 inhibition in Kyoto Green screening (in words): ineffective as inhibitors

## Cc1cn([C@H]2C[C@H](O)[C@@H](COP(=O)(O)Oc3ccc([N+](=O)[O-])cc3)O2)c(=O)[nH]c1=O [p-Nph-5′-TMP, p-nitrophenyl 5′-thymidine monophosphate]
[12]
  Km: 222 µM
